ChEMBL document CHEMBL3044973, “Substituted 9-aryl-1,8-acridinedione derivatives and their effects on potassium channels” (Med Chem Res, 2009)

Tests used:
Details in all cases: Aorta
[1] = biological target: T1, Potassium channel protein (Rattus norvegicus) (UniProt Q6I9B6); assay: Activation of potassium channel in Rattus norvegicus (rat) aortic rings assessed as inhibition of phenylepinephrine-induced contractile response
T1 sequence (whole entry): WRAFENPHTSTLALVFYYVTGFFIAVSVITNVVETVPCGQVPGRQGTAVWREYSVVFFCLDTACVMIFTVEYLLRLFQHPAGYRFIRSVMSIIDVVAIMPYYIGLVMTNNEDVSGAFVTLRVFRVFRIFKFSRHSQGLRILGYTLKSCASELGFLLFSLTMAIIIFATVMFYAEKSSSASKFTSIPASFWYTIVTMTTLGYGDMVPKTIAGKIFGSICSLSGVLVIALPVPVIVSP

[2] = biological target: T1, Potassium channel protein (Rattus norvegicus); assay: Activation of potassium channel in Rattus norvegicus (rat) aortic rings assessed as inhibition of phenylepinephrine-induced contractile response in presence of ATP-sensitive potassium channel inhibitor glibenclamide
[3] = biological target: T1, Potassium channel protein (Rattus norvegicus); assay: Activation of potassium channel in Rattus norvegicus (rat) aortic rings assessed as inhibition of phenylepinephrine-induced contractile response in presence of calcium activated potassium channel inhibitor TEA
[4] = biological target: T1, Potassium channel protein (Rattus norvegicus); assay: Activation of potassium channel in Rattus norvegicus (rat) aortic rings assessed as inhibition of phenylepinephrine-induced contractile response relative to control
[5] = biological target: T1, Potassium channel protein (Rattus norvegicus); assay: Activation of potassium channel in Rattus norvegicus (rat) aortic rings assessed as inhibition of phenylepinephrine-induced contractile response in presence of calcium activated potassium channel inhibitor TEA relative to control
[6] = biological target: T1, Potassium channel protein (Rattus norvegicus); assay: Activation of potassium channel in Rattus norvegicus (rat) aortic rings assessed as inhibition of phenylepinephrine-induced contractile response in presence of ATP-sensitive potassium channel inhibitor glibenclamide relative to control

| Activity [1] | Activity [2] | Activity [3] | pD2 [1] | Emax [4] [%] | Emax [5] [%] | Emax [6] [%] | SMILES |
| --- | --- | --- | --- | --- | --- | --- | --- |
| Dose-dependent effect | Dose-dependent effect | Dose-dependent effect | 4.13 | 55 | 15.5 | 22.4 | CC1CC(=O)C2=C(C1)NC1=C(C(=O)CC(C)C1)C2c1ccc(F)c(C(F)(F)F)c1 (stereo unspecified) |
| Dose-dependent effect | Dose-dependent effect | Dose-dependent effect | 4.23 | 63 | 19.8 | 29 | CC1CC(=O)C2=C(C1)NC1=C(C(=O)CC(C)C1)C2c1cccc(C(F)(F)F)c1Cl (stereo unspecified) |
| Dose-dependent effect | Dose-dependent effect | Dose-dependent effect |  |  |  |  | CC1CC(=O)C2=C(C1)NC1=C(C(=O)CC(C)C1)C2c1ccc(Cl)c(C(F)(F)F)c1 (stereo unspecified) |
| Dose-dependent effect | Dose-dependent effect | Dose-dependent effect | 4.38 | 52.2 |  |  | CC1CC(=O)C2=C(C1)NC1=C(C(=O)CC(C)C1)C2c1c(C(F)(F)F)ccc(Cl)c1F (stereo unspecified) |
| Dose-dependent effect | Dose-dependent effect | Dose-dependent effect |  |  |  |  | CC1CC(=O)C2=C(C1)NC1=C(C(=O)CC(C)C1)C2c1cc(C(F)(F)F)ccc1Cl (stereo unspecified) |

The next lines start with the molecule.

| SMILES | Activity [1] | Activity [2] | Activity [3] | pD2 [1] | Emax [4] [%] | Emax [5] [%] | Emax [6] [%] |
| --- | --- | --- | --- | --- | --- | --- | --- |
| CC1CC(=O)C2=C(C1)NC1=C(C(=O)CC(C)C1)C2c1cc(C(F)(F)F)cc(Cl)c1F (stereo unspecified) | Dose-dependent effect | Dose-dependent effect | Dose-dependent effect |  |  |  |  |
| CC1CC(=O)C2=C(C1)NC1=C(C(=O)CC(C)C1)C2c1ccc(F)cc1C(F)(F)F (stereo unspecified) | Dose-dependent effect | Dose-dependent effect | Dose-dependent effect |  |  |  |  |
| CC1CC(=O)C2=C(C1)NC1=C(C(=O)CC(C)C1)C2c1c(F)cccc1C(F)(F)F (stereo unspecified) | Dose-dependent effect | Dose-dependent effect | Dose-dependent effect | 4.6 | 59.5 | 21.8 | 23.8 |
| CC1CC(=O)C2=C(C1)NC1=C(C(=O)CC(C)C1)C2c1ccc(C(F)(F)F)cc1F (stereo unspecified) | Dose-dependent effect | Dose-dependent effect | Dose-dependent effect | 4.12 | 57.4 | 27.7 | 27.2 |
| CC(N/C(=N\C#N)Nc1ccncc1)C(C)(C)C (stereo unspecified) | Dose-dependent effect | Dose-dependent effect | Dose-dependent effect | 4.71 | 69.5 | 18.5 | 20.8 |
| CC1CC(=O)C2=C(C1)NC1=C(C(=O)CC(C)C1)C2c1cc(F)cc(C(F)(F)F)c1 (stereo unspecified) | Dose-dependent effect | Dose-dependent effect | Dose-dependent effect |  |  |  |  |
| CC1CC(=O)C2=C(C1)NC1=C(C(=O)CC(C)C1)C2c1cccc(C(F)(F)F)c1F (stereo unspecified) | Dose-dependent effect | Dose-dependent effect | Dose-dependent effect |  |  |  |  |
| CC1CC(=O)C2=C(C1)NC1=C(C(=O)CC(C)C1)C2c1cc(C(F)(F)F)ccc1F (stereo unspecified) | Dose-dependent effect | Dose-dependent effect | Dose-dependent effect |  |  |  |  |
